ChEMBL document CHEMBL3860084, “Allyl and prenyl ethers of mansonone G, new potential semisynthetic antibacterial agents” (2016)
Converted amounts (≈) assume the structure as drawn.

Key:
Staphylococcus aureus [1] = assay: Antibacterial activity against Staphylococcus aureus ATCC 25923 at 1000 uM after 24 hrs by agar well-diffusion method; assay type: functional; settings: ATCC 25923, 24 h, read-out: DIZ
Salmonella typhi [2] = assay: Antibacterial activity against Salmonella typhi ATCC 422 at 1000 uM after 24 hrs by agar well-diffusion method; assay type: functional, Salmonella enterica subsp. enterica serovar Typhi; settings: Salmonella enterica, ATCC 422, 24 h; read-out: DIZ
Streptococcus sobrinus [3] = assay: Antibacterial activity against Streptococcus sobrinus KCCM 11898 at 1000 uM after 24 hrs by agar well-diffusion method; assay type: functional; settings: KCCM 11898, 24 h, read-out: DIZ
Streptococcus mutans [4] = assay: Antibacterial activity against Streptococcus mutans ATCC 25175 at 1000 uM after 24 hrs by agar well-diffusion method; assay type: functional; settings: ATCC 25175, 24 h, read-out: DIZ
Cutibacterium acnes [5] = assay: Antibacterial activity against Propionibacterium acnes KCCM 41747 at 1000 uM after 24 hrs by agar well-diffusion method; assay type: functional; settings: KCCM 41747, 24 h, read-out: DIZ
Cutibacterium acnes [6] = assay: Antibacterial activity against Propionibacterium acnes KCCM 41747 by resazurin based broth microdilution method; assay type: functional
Staphylococcus aureus [7] = assay: Antibacterial activity against Staphylococcus aureus ATCC 25923 by resazurin based broth microdilution method; assay type: functional
Streptococcus mutans [8] = assay: Antibacterial activity against Streptococcus mutans ATCC 25175 by resazurin based broth microdilution method; assay type: functional
Streptococcus sobrinus [9] = assay: Antibacterial activity against Streptococcus sobrinus KCCM 11898 by resazurin based broth microdilution method; assay type: functional
Salmonella typhi [10] = assay: Antibacterial activity against Salmonella typhi ATCC 422 by resazurin based broth microdilution method; assay type: functional, Salmonella enterica subsp. enterica serovar Typhi; settings: Salmonella enterica
Streptococcus sobrinus [11] = assay: Antibacterial activity against Streptococcus sobrinus KCCM 11898 at 500 uM after 24 hrs by agar well-diffusion method; assay type: functional; settings: KCCM 11898, 24 h, read-out: DIZ
Cutibacterium acnes [12] = assay: Antibacterial activity against Propionibacterium acnes KCCM 41747 at 500 uM after 24 hrs by agar well-diffusion method; assay type: functional; settings: KCCM 41747, 24 h, read-out: DIZ
Salmonella typhi [13] = assay: Antibacterial activity against Salmonella typhi ATCC 422 at 500 uM after 24 hrs by agar well-diffusion method; assay type: functional, Salmonella enterica subsp. enterica serovar Typhi; settings: Salmonella enterica, ATCC 422, 24 h; read-out: DIZ
Streptococcus mutans [14] = assay: Antibacterial activity against Streptococcus mutans ATCC 25175 at 500 uM after 24 hrs by agar well-diffusion method; assay type: functional; settings: ATCC 25175, 24 h, read-out: DIZ
Staphylococcus aureus [15] = assay: Antibacterial activity against Staphylococcus aureus ATCC 25923 at 500 uM after 24 hrs by agar well-diffusion method; assay type: functional; settings: ATCC 25923, 24 h, read-out: DIZ

Compound | zone of inhibition at 1000 µM (Staphylococcus aureus [1]) | zone of inhibition at 1000 µM (Salmonella typhi [2]) | zone of inhibition at 1000 µM (Streptococcus sobrinus [3]) | zone of inhibition at 1000 µM (Streptococcus mutans [4]) | zone of inhibition at 1000 µM (Cutibacterium acnes [5]) | MIC (Cutibacterium acnes [6]) | MIC (Staphylococcus aureus [7]) | MIC (Streptococcus mutans [8]) | MIC (Streptococcus sobrinus [9]) | MIC (Salmonella typhi [10]) | zone of inhibition at 500 µM (Streptococcus sobrinus [11]) | zone of inhibition at 500 µM (Cutibacterium acnes [12]) | zone of inhibition at 500 µM (Salmonella typhi [13]) | zone of inhibition at 500 µM (Streptococcus mutans [14]) | zone of inhibition at 500 µM (Staphylococcus aureus [15])
COc1cc(C)c2c(c1C(C)C)C=C(C)C(=O)C2=O | 15.3 mm | 10.7 mm | 10.7 mm | 11.3 mm | 13.2 mm | – | – | – | – | – | – | – | – | – | –
C=CCOc1cc(C)c2c(c1C(C)C)C=C(C)C(=O)C2=O | 23 mm | 14.5 mm | 16 mm | 17.3 mm | 14.8 mm | 31.2 µM (≈ 8.89 µg/mL) | 0.975 µM (≈ 0.277 µg/mL) | 31.2 µM (≈ 8.89 µg/mL) | 15.6 µM (≈ 4.44 µg/mL) | 62.5 µM (≈ 17.8 µg/mL) | – | – | – | – | –
CCCCCCCC(=O)Oc1cc(C)c2c(c1C(C)C)C=C(C)C(=O)C2=O | 8.7 mm | 9.6 mm | 11.3 mm | 10.3 mm | 11.5 mm | – | – | – | – | – | – | – | – | – | –
CC1=C2OCC(C)c3c(O)cc(C)c(c32)C(=O)C1=O (stereo not given) | 12 mm | 11 mm | 8.3 mm | 10.3 mm | 11.9 mm | 125 µM (≈ 32.3 µg/mL) | 250 µM (≈ 64.6 µg/mL) | 62.5 µM (≈ 16.1 µg/mL) | 62.5 µM (≈ 16.1 µg/mL) | 31.2 µM (≈ 8.07 µg/mL) | – | – | – | – | –
CCCC(=O)Oc1cc(C)c2c(c1C(C)C)C=C(C)C(=O)C2=O | 18 mm | 10.7 mm | 13.7 mm | 12.7 mm | 13 mm | – | 62.5 µM (≈ 19.6 µg/mL) | – | – | – | – | – | – | – | –
CCOc1cc(C)c2c(c1C(C)C)C=C(C)C(=O)C2=O | 16 mm | 10.8 mm | 14 mm | 18 mm | 13.3 mm | 62.5 µM (≈ 17 µg/mL) | – | 62.5 µM (≈ 17 µg/mL) | 31.2 µM (≈ 8.51 µg/mL) | – | – | – | – | – | –
CC(C)=CCOc1cc(C)c2c(c1C(C)C)C=C(C)C(=O)C2=O | 23.7 mm | 16.3 mm | 16.7 mm | 17.7 mm | 15 mm | 31.2 µM (≈ 9.76 µg/mL) | 0.975 µM (≈ 0.305 µg/mL) | 31.2 µM (≈ 9.76 µg/mL) | 31.2 µM (≈ 9.76 µg/mL) | 62.5 µM (≈ 19.5 µg/mL) | – | – | – | – | –
CCCCCCCCOc1cc(C)c2c(c1C(C)C)C=C(C)C(=O)C2=O | 20 mm | 16.3 mm | 15.7 mm | 20 mm | 14.6 mm | 31.2 µM (≈ 11.1 µg/mL) | 15.6 µM (≈ 5.56 µg/mL) | 31.2 µM (≈ 11.1 µg/mL) | 31.2 µM (≈ 11.1 µg/mL) | 31.2 µM (≈ 11.1 µg/mL) | – | – | – | – | –
CCCCCCCCCCCCOc1cc(C)c2c(c1C(C)C)C=C(C)C(=O)C2=O | 9 mm | 11.5 mm | 8 mm | 9 mm | 11.9 mm | – | – | – | – | – | – | – | – | – | –
CCCCCCCCCC(=O)Oc1cc(C)c2c(c1C(C)C)C=C(C)C(=O)C2=O | 7 mm | 8.2 mm | 10.7 mm | 9.7 mm | 11.4 mm | – | – | – | – | – | – | – | – | – | –
CCCCCC(=O)Oc1cc(C)c2c(c1C(C)C)C=C(C)C(=O)C2=O | 14.7 mm | 9.7 mm | 12.7 mm | 12 mm | 11.6 mm | – | – | – | – | – | – | – | – | – | –
CC(C)=CCC/C(C)=C/COc1cc(C)c2c(c1C(C)C)C=C(C)C(=O)C2=O | 14 mm | 14 mm | 11.5 mm | 16.2 mm | 11.1 mm | – | – | – | – | 125 µM (≈ 47.6 µg/mL) | – | – | – | – | –
CCCCOc1cc(C)c2c(c1C(C)C)C=C(C)C(=O)C2=O | 18 mm | 12 mm | 15.5 mm | 18.3 mm | 13.6 mm | 15.6 µM (≈ 4.69 µg/mL) | 15.6 µM (≈ 4.69 µg/mL) | 7.8 µM (≈ 2.34 µg/mL) | 125 µM (≈ 37.5 µg/mL) | 3.9 µM (≈ 1.17 µg/mL) | – | – | – | – | –
CC1=Cc2c(C(C)C)ccc(C)c2C(=O)C1=O | 12.7 mm | 11.3 mm | 9.3 mm | 13.7 mm | 13.3 mm | 62.5 µM (≈ 14.3 µg/mL) | 62.5 µM (≈ 14.3 µg/mL) | 15.6 µM (≈ 3.56 µg/mL) | 31.2 µM (≈ 7.13 µg/mL) | 31.2 µM (≈ 7.13 µg/mL) | – | – | – | – | –
O=C(N[C@H](CO)[C@H](O)c1ccc([N+](=O)[O-])cc1)C(Cl)Cl [CHLORAMPHENICOL] | – | – | – | – | – | – | – | – | – | – | 25.3 mm | 30 mm | 24.8 mm | 25.7 mm | 20.7 mm
CC1=C2OCC(C)c3ccc(C)c(c32)C(=O)C1=O (stereo not given) [MANSONONE E] | 19.7 mm | 11.6 mm | 16.7 mm | 20.3 mm | 13.5 mm | 31.2 µM (≈ 7.57 µg/mL) | 31.2 µM (≈ 7.57 µg/mL) | 3.9 µM (≈ 0.945 µg/mL) | 15.6 µM (≈ 3.78 µg/mL) | 15.6 µM (≈ 3.78 µg/mL) | – | – | – | – | –
CC1=Cc2c(c(C)cc(O)c2C(C)C)C(=O)C1=O [MANSONONE G] | 13.7 mm | 11.9 mm | 10 mm | 14.7 mm | 15.6 mm | 31.2 µM (≈ 7.63 µg/mL) | 62.5 µM (≈ 15.3 µg/mL) | 31.2 µM (≈ 7.63 µg/mL) | 31.2 µM (≈ 7.63 µg/mL) | 15.6 µM (≈ 3.81 µg/mL) | – | – | – | – | –
